Tested on: aphid Rhopalosiphum padi
Assay: Assay of the phagodeterrent activity of the R—OH alcohols (two-leaf choice test on wheat leaves in Petri dishes)
Type: in vivo
Details: for Bonferroni test: Treated media (mean number of aphids on treated leaves): wheat leaves, recorded each hour for 8 hours; for Bonferroni test: significance of treated vs control media: treated vs 5% methanol control leaf
Method: Treatment of wheat leaves consisted of immersion of the same for 10 seconds in aqueous suspensions of 5% methanol of the different alcohols, some of which were also tested at different concentrations.
As a control, the same number of leaves was prepared by immersion in an aqueous solution of 5% methanol only.
Assay of the Phaqodeterrent Activity of the R—OH Alcohols:
Petri dishes 9 cm in diameter were used, into each of which two wheat leaves were arranged in parallel and separated from one another by a distance of approximately 4 cm; one leaf was treated with the suspension in 5% methanol of alcohol at various concentrations, and the other control leaf was washed with a solution of 5% methanol. Aphids of the species Rhopalosiphum padi were introduced to the dishes (one per dish) at equal distance from the two leaves.
For each test, 10 aphids were used and the same test was repeated at least 12 times, for at least 120 aphids. The number of aphids present on the treated leaves and on the control leaves was recorded each hour for a total of 8 hours.
The raw data relating to the food choices of the aphids were analysed using the Generalised Linear Model (GLM) procedure for repeated measurements (SPSS release 15.01) and reported in Table 1. The differences of the media between the number of aphids per leaf at each […] and the number of aphids on corresponding control leaves were analysed and corrected by using the Bonferroni test for multiple comparisons.

[1] = alcohol 1.2 mM in 5% methanol aqueous suspension
[2] = alcohol 0.15 mM in 5% methanol aqueous suspension
[3] = alcohol 0.3 mM in 5% methanol aqueous suspension
[4] = alcohol 0.6 mM in 5% methanol aqueous suspension

CCCCCCCC/C=C\CCCCCCCCO [Cis-9-octadecenol]
Bonferroni test: Treated media (mean number of aphids on treated leaves) [1]: 2.281 ± 0.283
Bonferroni test: significance of treated vs control media (alcohol 1.2 mM): ** (** P < 0.01)

CCCCCCCCCCCCCCCCCCCCO [Eicosanol]
Bonferroni test: Treated media (mean number of aphids on treated leaves) [1]: 3.042 ± 0.303
Bonferroni test: significance of treated vs control media (alcohol 1.2 mM): ** (** P < 0.01)

CCCCCCCCCCCCCCCCCO [Heptadecanol]
Bonferroni test: Treated media (mean number of aphids on treated leaves) [2]: 3.240 ± 0.410
Bonferroni test: significance of treated vs control media (alcohol 0.15 mM): ** (** P < 0.01)
Bonferroni test: Treated media (mean number of aphids on treated leaves) [3]: 3.063 ± 0.532
Bonferroni test: significance of treated vs control media (alcohol 0.3 mM): ** (** P < 0.01)
Bonferroni test: Treated media (mean number of aphids on treated leaves) [4]: 2.177 ± 0.298
Bonferroni test: significance of treated vs control media (alcohol 0.6 mM): ** (** P < 0.01)
Bonferroni test: Treated media (mean number of aphids on treated leaves) [1]: 1.094 ± 0.294
Bonferroni test: significance of treated vs control media (alcohol 1.2 mM): ** (** P < 0.01)

CCCCCCCCCCCCCCCCO [Hexadecanol]
Bonferroni test: Treated media (mean number of aphids on treated leaves) [2]: 3.938 ± 0.429
Bonferroni test: significance of treated vs control media (alcohol 0.15 mM): * (*P < 0.05)
Bonferroni test: Treated media (mean number of aphids on treated leaves) [3]: 2.635 ± 0.323
Bonferroni test: significance of treated vs control media (alcohol 0.3 mM): ** (** P < 0.01)
Bonferroni test: Treated media (mean number of aphids on treated leaves) [4]: 2.281 ± 0.371
Bonferroni test: significance of treated vs control media (alcohol 0.6 mM): ** (** P < 0.01)
Bonferroni test: Treated media (mean number of aphids on treated leaves) [1]: 1.308 ± 0.315
Bonferroni test: significance of treated vs control media (alcohol 1.2 mM): ** (** P < 0.01)

CCCCCCCCCCCCCCCCCCCO [Nonadecanol]
Bonferroni test: Treated media (mean number of aphids on treated leaves) [1]: 3.427 ± 0.391
Bonferroni test: significance of treated vs control media (alcohol 1.2 mM): * (*P < 0.05)

CCCCCCCCCCCCCCCO [Pentadecanol]
Bonferroni test: Treated media (mean number of aphids on treated leaves) (alcohol 0.075 mM in 5% methanol aqueous suspension): 3.073 ± 0.335
Bonferroni test: significance of treated vs control media (alcohol 0.075 mM): ** (** P < 0.01)
Bonferroni test: Treated media (mean number of aphids on treated leaves) [2]: 3.406 ± 0.405
Bonferroni test: significance of treated vs control media (alcohol 0.15 mM): ** (** P < 0.01)
Bonferroni test: Treated media (mean number of aphids on treated leaves) [3]: 2.271 ± 0.283
Bonferroni test: significance of treated vs control media (alcohol 0.3 mM): ** (** P < 0.01)
Bonferroni test: Treated media (mean number of aphids on treated leaves) [4]: 2.385 ± 0.237
Bonferroni test: significance of treated vs control media (alcohol 0.6 mM): ** (** P < 0.01)
Bonferroni test: Treated media (mean number of aphids on treated leaves) [1]: 1.365 ± 0.301
Bonferroni test: significance of treated vs control media (alcohol 1.2 mM): ** (** P < 0.01)

CCCCCCCCCCCCCCO [Tetradecanol]
Bonferroni test: Treated media (mean number of aphids on treated leaves) [2]: 2.375 ± 0.370
Bonferroni test: significance of treated vs control media (alcohol 0.15 mM): ** (** P < 0.01)
Bonferroni test: Treated media (mean number of aphids on treated leaves) [3]: 3.271 ± 0.217
Bonferroni test: significance of treated vs control media (alcohol 0.3 mM): ** (** P < 0.01)
Bonferroni test: Treated media (mean number of aphids on treated leaves) [4]: 2.365 ± 0.264
Bonferroni test: significance of treated vs control media (alcohol 0.6 mM): ** (** P < 0.01)
Bonferroni test: Treated media (mean number of aphids on treated leaves) [1]: 1.938 ± 0.322
Bonferroni test: significance of treated vs control media (alcohol 1.2 mM): ** (** P < 0.01)

Octadecenol
Bonferroni test: Treated media (mean number of aphids on treated leaves) [1]: 2.469 ± 0.333
Bonferroni test: significance of treated vs control media (alcohol 1.2 mM): ** (** P < 0.01)
